Here are results for four compounds from patent publication US10064890B2, “Amorphous calcium carbonate for the treatment of calcium malabsorption and metabolic bone disorders” (AMORPHICAL LTD, priority 2011, dated 2018).

Structures can show the parent of a compound that is named as a salt. Marks after values point to notes of the source that are not given here.

Series [1] relates to ovariectomized (OVX) rat model. Kind of series: Trial 7: micro-CT of distal femur and 4th lumbar vertebra. The conditions noted are these: for Tb. N / Tb. Sp / Tb. Th: OVX rats, 90 days; for DA: sham group lower than the OVX group by / SMI: sham group lower than the OVX group by / TBPf: sham group lower than the OVX group by: 4th-lumbar vertebra, difference from sham; for trabecular bone region in μCT three-dimensional reconstruction: distal femur and 4th vertebra, FIG. 7, in comparison to the Sham; for trabecular femoral BMD: Sham group higher compared to the OVX group by: femur, difference from Sham.
Experimental: In the study, five groups of rats were tested (4 ovariectomized and 1 sham). The OVX animals were fed with special food mixtures in the form of pellets from four different calcium sources: commercial crystalline calcium carbonate served as control (mix A), natural ACC (Gastrolith powder) (mix B), synthetic ACC (comprising trace amounts of phospho-serine) (mix C), and commercial crystalline calcium citrate (mix D). Sham group was administrated with the same food as the control. Pellets from all four mixtures contained ˜0.5% elemental calcium as confirmed by atomic absorption apparatus (Varian AA240, Palo Alto, Calif., USA) and described in Table 19 with no added vitamin D, except for the amounts found in the original food pellets (22 IU vitamin D/g).
For the administration of the different calcium sources, special food pellets containing were prepared. Low calcium rodent pellets containing 0.02% calcium (Rat chow #TD95027 Harlan Inc., Jerusalem, Israel) was finely grounded and separately mixed with four different calcium sources. […] Every mix was separately pelleted and kept in a sealed bag at room temperature.
Rats were randomly assigned and operated according to their assigned five groups: Sham (sham-Ovariectomized) fed with mix A, and four other groups were ovariectomized (OVX) using a bilateral dorsal approach according to Lasota and Danowska-Klonowska (2004) Rocz Akad Med Bialymst 49 Suppl 1:129-131, and divided to OVX Control (fed with mix A), OVX Gast (fed with mix B), OVX ACC (fed with mix C) and OVX Citrate (fed with mix D). Following operation, rats were provided a 7 days recovery period under the same conditions as the acclimation period, standard laboratory diet ad-libitum and de-ionized water containing 1.5 ml/400 ml Dipyrone (Vitamed Ltd, Binyamina, Israel), and 1 mg/kg Enrofloxacin (Buyer Ltd. Leverkusen, Germany).
At the end of the recovery period the rats were group-housed in 47 cages (2 rats/cage) according to the group assignment, under the same controlled room conditions as described above. The assigned supplemental pellets and de-ionized water were provided ad-libitum during the entire treatment period (90 days). […] For dynamic histomorphometric analysis fluorochrom dye Calcein (20 mg/kg body mass; Sigma-Aldrich, Israel) was IP injected to all rats at days 76 and 86. On day 90, rats were individually housed in metabolic cages and deprived from food and water for 18 h. Urine was collected from each metabolic funnel and was stored at −80° C. for future analysis of bone resorption biochemical marker at end of the experiment (Time 90). Immediately after urine sampling, serum samples were extracted for evaluation of formation biochemical marker of day 90 and stored in the same manner as described at day 0. All rats were sacrificed by CO2. Right femurs and 4th lumbar vertebras were dissected, wrapped with gaze pads soaked with saline buffer and kept in −80° C. for measurement of bone micro-CT scan. The 5th lumbar vertebras were stored in the same conditions as the right femurs for mechanical testing. Right tibias were dissected and placed immediately for 24 h at 4° C. in 3.7% formaldehyde solution (F1636, Sigma-Aldrich, Israel) for structural and dynamic histomorphometric measurements.
Trabecular and cortical bone microarchitecture of right femurs and 4th lumbar vertebras were analyzed using a μCT scanner (Skyscan 1174, Kartuizersweg Kontich, Belgium).

Series [2] has as its system ovariectomized (OVX) rat model. Kind of series: Trial 7: histomorphometry of un-decalcified proximal tibia sections. In kind it is in vivo, Sprague Dawley rats. The conditions noted are these: for BFR/BS / MAR / MS/BS: dynamic (calcein); for BFR/BS / MAR / MS/BS / BV/TV / Tb. N / Tb. Sp / Tb. Th: OVX rats; for BV/TV / Tb. N / Tb. Sp / Tb. Th: structural, 90 days. How it is done:
(§1) All rats were sacrificed by CO2.
Right tibias were removed from the formaldehyde solution and dehydrated through an ethanol gradient, cleared using xylene (24250521, Bio-Lab Ltd. Haifa, Israel), and infiltrated with 80% methylmethacrylate (MMA; M5599, Sigma Aldrich, Rehovot, Israel)+20% dibutyl phthalate (DBP; 61-5062, Merck Ltd, Hohenbrunn, Germany) for 3 days at 4° C. Specimens were then transferred to MMA+DBP+Benozoyl peroxide (617008, Merck Ltd, Hohenbrunn, Germany) solution for another 6 days infiltration at 4° C. Following infiltration procedure, specimens were embedded in MMA+DBP+2.5% Benozoyl peroxide under a temperature gradient (from 38° C. to 50° C. over a period of 4 days). Mid-sagittal (4 μm) un-decalcified sections from each specimen were cut using a Lecia RM 2025 microtome (Lecia Instruments Ltd, Petach Tikva, Israel) connected to tungsten carbide knifes (Disposable blade; TC65, Rhenium Inc. Bet-Nekufa, Israel). Most sections were stained with McNeal's tetrachrome for structural histomorphometry. The remaining sections were left unstained for dynamic histomorphometry.
Measurement of both structural and dynamic histomorphometry of the proximal tibia metaphisyes were obtained using a semi-automatic analysis system (Bioquant OSTEO, ver. 7.20.10, BIOQUANT Image Analysis Corporation Nashville, USA) which is connected to a microscope (Nikon Optiphot 2, Kingston, England) equipped with fluorescent light source.

Series [3] relates to ovariectomized (OVX) rat model. The series is described as follows: Trial 7: mechanical strength of the 5th lumbar vertebra (compression test). In kind it is in vivo, Sprague Dawley rats. How it is done:
as §1
Mechanical properties (Ultimate force, Energy to ultimate force, Toughness and Energy to yield) were obtained from the compression tests of 5th lumbar vertebral body (L5). Calculation of the material properties were performed by measuring the height of the vertebral body and the average of caudal and cranial diameters using a caliper. Cross sectional area (CSA) and bone volume (BV) were obtained by μCT scanning that covered the entire bone including both trabecular and cortical shell.

The subject of series [4] is ovariectomized (OVX) rat model. Kind of series: Trial 7: bone turnover biochemical markers (urine DPD, serum OC) by EIA. In kind it is in vivo, Sprague Dawley rats. The settings on record: day 90, OVX rats. Here is the method:
as §1
Serum Osteocalcin (OC) concentration was determined by EIA kit (#BT-490, Biomedical Technologies Inc. Stoughtone, USA) following a 1:10 serum dilution.
Urinary Deoxypyridinoline (DPD) concentration was determined by commercial EIA kit (#8007, Qudiel Inc. San Diego, USA) following a 1:50 dilution. DPD levels were normalized to Creatinine levels (#8009, Qudiel Inc. San Diego, USA).

Series [5] is described as follows: Trial 1: calcium retention (intake minus feces and urine excretion). The settings on record: 34 h feces and urine collection, rats. Format: in vivo, Wistar rats. How it is done:
(§2) Twenty-six 2 month-old male Wistar rats, weighing 240±15 g, were orally administered with a single gelatin capsule containing either ACC (amorphous calcium carbonate) or CCC (crystalline calcium carbonate) intrinsically labeled with ^45Ca, followed by measurements of calcium fractional absorption in serum and calcium excretion.
Feces and urine were collected during the 17 h starvation phase during the acclimation period (baseline) and during the entire 34 h of the experiment to evaluate calcium. Samples of urine (500 μL) were transferred into plastic vials filled with scintillation liquid. Feces were dried overnight at 70° C. in an oven. The samples were ground in a mortar until fine homogenization. Feces samples (200 mg) were placed into 5 ml of 1 N NaOH solution (Gadot, Netanya, Israel), incubated for 3 hours at 80° C. and centrifuged for 10 minutes at 3,600 g. Duplicate samples of the supernatant (30 μL) were transferred into plastic vials containing scintillation liquid. Radioactivity of the urine and feces samples was measured using a liquid scintillation counter. Retention values were calculated by subtracting the radioactivity measured in the feces and urine from the given dose […].

Series [6] can be described thus: Trial 1: serum calcium pharmacokinetics after single oral capsule of 45Ca-labeled calcium carbonate. Further details: species or system Wistar rats. The settings on record: rat, in vivo. Here is the method: as §2
All animals were treated according to the Israel Animal Welfare Act under the supervision of the Ben-Gurion University Animal Care and Use program. Fifty-one two month-old male Wistar rats (Harlan-Teklad, Jerusalem, Israel), weighing 240±15 g, were randomly housed in 12 stainless steel cages in an environmentally-controlled room (23° C. temperature, 12:12 h light:dark cycle). The rats were fed laboratory rat chow pellets adequate in nutrients ad libitum (Koffolk, Petah-Tikva, Israel) and had free access to water for 48 h. Four days before the beginning of the experiment, the regular diet was replaced with a low calcium diet containing 0.24±0.05% calcium (0.675±0.05% phosphate), specially prepared by mixing two food types containing, respectively, 0.01% calcium (0.3% phosphate; Harlan-Teklad) and 1% calcium (0.8% phosphate; Koffolk). The two food types were separately ground in a mill to yield two powders which were dry mixed in a ratio of 4:1, respectively, until fine homogenization. The homogenized powder was extruded to form new food pellets.
Seventeen hours prior to capsule administration, the rats were weighed and blood samples were taken (baseline). The rats were then placed into individual metabolic cages and deprived of food and water until 3 h post-capsule administration. Three and 24 h post-dosing, ˜10 g of low calcium food pellets (0.01% calcium; Harlan-Teklad) were given to each rat. Distilled water was allowed ad libitum starting three h post-capsule administration.
Each rat was lightly sedated for 30 seconds with isoflurane (Minrad) diluted 1:4 (v:v) with propylene glycol (BioLab). A single capsule containing a specific calcium carbonate preparation (i.e. CCC, ACC, or ACC-C; n=17 for each group) was administered intragastrically to each of the experimental rats using a stainless steel rat administration syringe (Harvard Apparatus).
Blood samples of […] were taken from each rat's tail vein 17 h prior to capsule administration (time 0) and 2, 3, 6, 10, 24 and 34 h post-administration. The blood samples were immediately centrifuged for 10 minutes at 3000 g using a tabletop centrifuge (Hettich Zentrifugen, Bach, Switzerland). Duplicate samples (30 μl) of the supernatant serum were transferred into plastic vials containing scintillation liquid (Zinsser Analytic, Berkshire, UK) and radioactivity was measured using a liquid scintillation counter (Tri-Carb 2100TR, PerkinElmer, Boston, Mass.). Plasma radioactivity from the given dose were normalized according to the measured radioactivity and specific radioactive dose that each rat received [(serum cpm×100)/(total cpm×sample volume)].
Non-compartmental analysis of an individual rat's calcium concentration versus time data was performed using WinNonLin 5.2 software (Pharsight, Mountain View, Calif.).

Series [7] concerns ovariectomized (OVX) rat model. Kind of series: Trial 6: micro-CT of distal femur and 4th lumbar vertebra, ACC with or without alendronate. Format: in vivo, Sprague Dawley rats. The conditions noted are these: for SMI / TBPf / Tb. N / Tb. Sp / Tb. Th: OVX rats, 4 months treatment. Here is the method:
The inventors have conducted a study aiming to evaluate the effects of Amorphous Calcium Carbonate (ACC) on bone mineral density and bone fraction in metabolic bone disorders, and specifically osteoporosis as presented in the ovariectomized (OVX) rat model wherein the ACC is administered in combination with a standard medication for osteoporosis. In the present trial, five groups of rats were tested (4 OVX and 1 sham). Following operation, all rats were left untreated (fed with standard laboratory diet) to develop osteopenia for a period of 2 months. […] In addition, the animals were i.v injected (3 times/week) with either saline or 2 μg/kg alendronate (ALN) according to their group assignment, as described in Table 16.
A CCC mix containing 1% elemental calcium from crystalline calcium carbonate (Socal® Precipitated Calcium Carbonate), and an ACC mix containing 1% elemental calcium from stable amorphous calcium carbonate (containing 1% phosphoserine and 2% Citrate; Amorphical Ltd., Beer-Sheva, Israel).
Following 2 months, rats started treatment according to their assignment as described in Table 16 for a period of 4 months. […] Food consumption and body weight were recorded weekly (Table 17). At the end of the treatment period, all rats were sacrificed by CO2.

As to `O=C([O-])[O-].[Ca+2]` [Control, calcium carbonate], in series [1] (4th lumbar vertebra), the “Tb. N” value was 1.57^b mm^−1, the “Tb. Sp” value was 254^b μm and the “Tb. Th” value is given as 87.5 μm. For the same compound, in series [1], the “DA: sham group lower than the OVX group by” value turned out to be 22%, the “SMI: sham group lower than the OVX group by” value is 43%, the “TBPf: sham group lower than the OVX group by” value was determined as 91% and the “trabecular bone region in μCT three-dimensional reconstruction” value (“trabecular bone region” below) was “lowest trabecular bone region”. Further, the “trabecular femoral BMD: Sham group higher compared to the OVX group by” value in series [1] is 64%. Further, the “BV/TV and Tb.N lower on average in comparison to the Sham” value in series [1] (distal femur) is 65%. In series [1] (distal femur metaphysis), the “Tb. N” value is on record as 2.2^b mm^−1, the “Tb. Sp” value is given as 248^b μm and the “Tb. Th” value is reported as 29.0^b μm. The “BV/TV and Tb.N lower on average in comparison to the Sham” value in series [1] (vertebra) stood at 60%. Moreover, in series [2], the “trabecular bone fraction and condensed trabeculas values lower compared to the Sham (average)” value came out at 55%; the “trabecular separation higher in comparison to Sham” value was found to be 130%; the BFR/BS was 0.164^a μm^2/μm/day; the MAR was 1.30 μm/day. Also, in series [2], the MS/BS is reported as 8.31^a %, the BV/TV is reported as 12.8^b %, the “Tb. N” value is reported as 2.5^b mm^−1 and the “Tb. Sp” value is 296^b μm. Moreover, the “Tb. Th” value in series [2] was 47.1^a μm. In addition, the “mechanical strength properties lower in comparison to Sham (average)” value in series [3] is on record as 41%. For the same compound, in series [4], the “DPD (urine deoxypyridinoline resorption marker)” value is recorded as 36.65^be nmol/mmol Cr and the “OC (serum osteocalcin formation marker)” value was 14.8^a ng/ml.
On to `O=C(O)CC(O)(CC(=O)O)C(=O)O` [Citrate, calcium citrate], for which, in series [1] (4th lumbar vertebra), the “Tb. N” value is reported as 1.59^b mm^−1, the “Tb. Sp” value is given as 262^b μm and the “Tb. Th” value was 86.6 μm. In series [1], the “DA: sham group lower than the OVX group by” value came to 22%, the “SMI: sham group lower than the OVX group by” value was determined as 43%, the “TBPf: sham group lower than the OVX group by” value was found to be 91% and the “trabecular bone region” value is “lowest trabecular bone region”. The “trabecular femoral BMD: Sham group higher compared to the OVX group by” value in series [1] came to 63%. Also, in series [1] (distal femur metaphysis), the “Tb. N” value was 2.4^b mm^−1, the “Tb. Sp” value was 226^bd μm and the “Tb. Th” value was 29.1^b μm. The “trabecular bone fraction and its number, Citrate compared with Control” value in series [1] (micro-CT) is reported as “No significant differences”. In series [2], the “trabecular bone fraction and condensed trabeculas values lower compared to the Sham (average)” value is reported as 55%; the “trabecular separation higher in comparison to Sham” value was 148%; the “trabecular thickness higher compared to Control” value was 13%; the BFR/BS is recorded as 0.159^a μm^2/μm/day. In addition, in series [2], the MAR is on record as 1.40 μm/day, the MS/BS is recorded as 8.25^a %, the BV/TV was 12.8^b % and the “Tb. N” value is on record as 2.3^b mm^−1. In series [2], the “Tb. Sp” value was 318^b μm and the “Tb. Th” value is on record as 53^b μm. In series [2] (Citrate vs ACC), the “MS/BS lower from the ACC group” value is 26% and the “bone formation rate lower from ACC” value worked out at 26%. Also, in series [2] (Citrate vs Gast), the “MS/BS lower from the Gast group” value was 29% and the “bone formation rate lower from Gast” value was determined as 28%. The “mechanical strength properties lower in comparison to Sham (average)” value in series [3] worked out at 40%. Further, in series [4], the “DPD (urine deoxypyridinoline resorption marker)” value is on record as 43.55^e nmol/mmol Cr and the “OC (serum osteocalcin formation marker)” value was 15.7^a ng/ml.
With `O=C([O-])[O-].[Ca+2]` [CCC, crystalline calcium carbonate], the “retention of the received dose” value in series [5] stood at 48.5±1.3%. For the same compound, in series [6], the “AUC∞” value is 109.7 ± 6.4 ^a μg × h/mL, the Cmax is 5.8 ± 0.07 ^a μg/mL and the Tmax is 3.0 ± 0.3 ^a h. For the same compound, in series [7] (4th lumbar vertebra), the SMI came to 1.62, the TBPf was found to be 8.5 mm^−1, the “Tb. N” value amounted to 1.75 mm^−1 and the “Tb. Sp” value came to 374 μm. Further, the “Tb. Th” value in series [7] (4th lumbar vertebra) was 98.4 μm. In addition, the “trabecular bone region” value in series [7] (distal femur and 4th vertebra, FIG. 5, compared to CCC / third group) is listed as “lowest trabecular bone region”. For the same compound, in series [7] (distal femur metaphysis), the SMI was 1.66, the TBPf was 7.6 mm^−1, the “Tb. N” value is recorded as 1.5 mm^−1 and the “Tb. Sp” value stood at 682 μm. Besides, the “Tb. Th” value in series [7] (distal femur metaphysis) was determined as 110 μm.
Turning to amorphous calcium carbonate [ACC], in series [6], the “AUC∞” value was 134.5 ± 7.0 ^b μg × h/mL, the Cmax was 8.1 ± 0.8 ^b μg/mL and the Tmax was 2.8 ± 0.2 ^a h.
